Values joined by “and” are separate entries in the source; they are usually repeats but may differ in a detail not shown here. Equal entries are not always repeated.
Test system: patients with advanced solid tumors
Assay: Dedicated QTc study: serial triplicate Holter ECGs, change from time-matched baseline
Type: in vivo, human
Settings: for LSM QTcF Change (95% UCB) from time-matched baseline / LSM QTcI Change (95% UCB) from time-matched baseline / LSM heart rate change (95% UCB) from time-matched baseline: 40 mg single oral dose
Procedure: The study was conducted at 5 centers across the United States (Montefiore Medical Center, Bronx, New York; Washington University School of Medicine, Saint Louis, Missouri; Stephenson Cancer Center, University of Oklahoma, Oklahoma City, Oklahoma; Mary Crowley Cancer Research Center, Dallas, Texas; and Florida Cancer Specialists/Sarah Cannon Research Institute, Sarasota, Florida) to evaluate the effect of a single oral dose of sapanisertib (40 mg) on the electrocardiographic QT/QTc interval in patients with advanced solid tumors (NCT02197572, clinicaltrials.gov). The primary end point was change from time‐matched baseline in the QTc interval (ΔQTc).
Patients reported to the study sites on day –1 for collection of serial baseline triplicate ECGs prior to sapanisertib administration (described in the ECG Assessments section). […] The patients were equipped with 12 ECG leads to continuously record patient ECG data onto a Holter H12+ ECG recorder. All procedures that were followed on day –1 were consistent with procedures expected for day 1, with the exception of plasma sample collection for PK assessments, since no sapanisertib was administered on day –1. After collection of the 10‐hour time point ECG on day –1, the patients were furloughed from the study site with Holter recorders still attached. These Holter recorders were to remain attached overnight to continue to collect ECG data into day 1.
On cycle 1 day 1, triplicate ECGs and plasma samples for PK were collected from patients ≤15 minutes prior to dosing and at 15 minutes; 30 minutes; and 1‐, 1.5‐, 2‐, 2.5‐, 3‐, 4‐, 6‐, 8‐, and 10‐hour time points after receiving a single oral dose of 40‐mg sapanisertib. The Holter recorders and ECG leads were removed from patients after collection of the 10‐hour time point ECG on day 1, following which patients were furloughed from site. Additional collections of ECGs and plasma samples for PK were conducted at 24 (cycle 1 day 2) and 48 hours (cycle 1 day 3) after dosing. After the first week, that is, cycle 1 day 8, patients had the option to continue to receive treatment with sapanisertib at a dose of 30 mg once weekly in continuous 28‐day cycles until disease progression, unacceptable toxicity, withdrawal of consent, or completion of the 12‐month maximum study duration.
To enable collection of time‐matched ECG and PK data before and after sapanisertib administration, patients reported to the study sites on day –1, during which ECG leads (12 leads) and Holter H12+ ECG recorders were attached. Each planned ECG collection time point was preceded by a 5‐minute supine rest period, after which triplicate ECGs were extracted from the Holter recorders at approximately 2‐ to 5‐minute intervals. Serial triplicate ECGs were collected from 0 to 10 hours, matched to the planned dosing on cycle 1 day 1 predose and postdose ECG and PK time points, to characterize the baseline ECG and QTc interval. All triplicate ECGs were extracted and read centrally (Biotelemetry, Malvern, Pennsylvania). All blood draws for PK were collected after the triplicate ECG collection period.
The baseline characterization of serial triplicate ECG allowed for patient‐specific individual heart rate correction (QTcI) in addition to the Fridericia's ( QTcF=QT/RR3 ) correction that is commonly used in clinical practice. The patient‐specific slopes were calculated using all pairs of QT and RR (time elapsing between two consecutive R waves in an ECG) interval data collected on day –1 and estimated using the linear regression expression: logQT=loga+b∗logRR to calculate the individual slope (b) for each patient. QTcI was then calculated as QTcI=QT/RR^b
ECG analysis was conducted in the primary analysis population, which included patients who had all time points collected on Holter ECG monitoring on day –1 and day 1 of cycle 1, including ECG time points collected on cycle 1 day 1 to cycle 1 day 3 at 24 or 48 hours after dosing that had available baseline comparisons. […]

[1] = after 40 mg dose, 32 evaluable patients

## CC(C)n1nc(-c2ccc3oc(N)nc3c2)c2c(N)ncnc21 [sapanisertib]
0.25 h after dose
  LSM QTcF Change (95% UCB) from time-matched baseline: –1.7 (2.2) msec
  LSM QTcI Change (95% UCB) from time-matched baseline: –2.2 (2.2) msec
  LSM heart rate change (95% UCB) from time-matched baseline: –0.2 (2.2) bpm
0.5 h after dose
  LSM QTcF Change (95% UCB) from time-matched baseline: –5.3 (–1.5) msec
  LSM QTcI Change (95% UCB) from time-matched baseline: –8.3 (–4.0) msec
  LSM heart rate change (95% UCB) from time-matched baseline: –4.4 (–1.9) bpm
1 h after dose
  LSM QTcF Change (95% UCB) from time-matched baseline: 1.8 msec and 1.8 (5.6) msec
  LSM QTcI Change (95% UCB) from time-matched baseline: –1.8 (2.6) msec
  LSM heart rate change (95% UCB) from time-matched baseline: –3.8 (–1.4) bpm
1.5 h after dose
  LSM QTcF Change (95% UCB) from time-matched baseline: 0.1 (4.0) msec
  LSM QTcI Change (95% UCB) from time-matched baseline: –2.7 (1.7) msec
  LSM heart rate change (95% UCB) from time-matched baseline: –3.3 (–0.9) bpm
2 h after dose
  LSM QTcF Change (95% UCB) from time-matched baseline: –3.7 (0.1) msec
  LSM QTcI Change (95% UCB) from time-matched baseline: –5.0 (–0.6) msec
  LSM heart rate change (95% UCB) from time-matched baseline: –0.8 (1.5) bpm
2.5 h after dose
  LSM QTcF Change (95% UCB) from time-matched baseline: –7.4 (–3.6) msec
  LSM QTcI Change (95% UCB) from time-matched baseline: –7.6 (–3.2) msec
  LSM heart rate change (95% UCB) from time-matched baseline: 0.1 (2.5) bpm
3 h after dose
  LSM QTcF Change (95% UCB) from time-matched baseline: –7.6 (–3.7) msec
  LSM QTcI Change (95% UCB) from time-matched baseline: –9.1 (–4.6) msec
  LSM heart rate change (95% UCB) from time-matched baseline: –0.1 (2.3) bpm
4 h after dose
  LSM QTcF Change (95% UCB) from time-matched baseline: –8.0 (–4.2) msec
  LSM QTcI Change (95% UCB) from time-matched baseline: –7.2 (–2.9) msec
  LSM heart rate change (95% UCB) from time-matched baseline: –0.2 (2.2) bpm
6 h after dose
  LSM QTcF Change (95% UCB) from time-matched baseline: –10.1 (–6.4) msec
  LSM QTcI Change (95% UCB) from time-matched baseline: –8.8 (–4.6) msec
  LSM heart rate change (95% UCB) from time-matched baseline: 4.8 (7.1) bpm
8 h after dose
  LSM QTcF Change (95% UCB) from time-matched baseline: –4.2 (–0.3) msec
  LSM QTcI Change (95% UCB) from time-matched baseline: –2.2 (2.4) msec
  LSM heart rate change (95% UCB) from time-matched baseline: 6.9 (9.4) bpm
10 h after dose
  LSM QTcF Change (95% UCB) from time-matched baseline: –12.5 (–7.1) msec
  LSM QTcI Change (95% UCB) from time-matched baseline: –6.6 (–0.5) msec
  LSM heart rate change (95% UCB) from time-matched baseline: 8.6 bpm and 8.6 (12.1) bpm
24 h after dose
  LSM QTcF Change (95% UCB) from time-matched baseline: 0.8 (4.5) msec
  LSM QTcI Change (95% UCB) from time-matched baseline: 7.1 msec and 7.1 (11.4) msec
  LSM heart rate change (95% UCB) from time-matched baseline: 12.4 bpm and 12.4 (14.7) bpm
48 h after dose
  LSM QTcF Change (95% UCB) from time-matched baseline: 1.2 msec and 1.2 (5.8) msec
  LSM QTcI Change (95% UCB) from time-matched baseline: 2.8 (8.1) msec
  LSM heart rate change (95% UCB) from time-matched baseline: 5.4 (8.3) bpm
40 mg, patients with advanced solid tumors
  Clinically relevant (>20 milliseconds) effect on the QT interval: does not produce clinically relevant (ie, >20 milliseconds) effects on the QT interval
[1]
  Patients with PR >200 msec: 1 (3.1) n (%)
  Patients with QRS >110 msec: 0 (0) n (%)
  Patients with QTcF >450 msec: 2 (6.3) n (%)
  Patients with QTcF >480 msec: 0 (0) n (%)
  Patients with QTcF >500 msec: 0 (0) n (%)
  Patients with QTcI >450 msec: 6 (18.8) n (%)
  Patients with QTcI >480 msec: 1 (3.1) n (%)
  Patients with QTcI >500 msec: 0 (0) n (%)
  Patients with ΔPR >25% at any time point: 1 (3.1) n (%)
  Patients with ΔQRS >25% at any time point: 0 (0) n (%)
  Patients with ΔQTcF >30 msec at any time point: 2 (6.3) n (%)
  Patients with ΔQTcF >60 msec at any time point: 0 (0) n (%)
  Patients with ΔQTcI >30 msec at any time point: 5 (15.6) n (%)
  Patients with ΔQTcI >60 msec at any time point: 1 (3.1) n (%)
After 40 mg dose, of the 6 patients with prolonged QTcI, 32 evaluable
  Patients with ΔQTcI between 30 and 60 milliseconds: 4 patients

— article PMC7586797, “Phase 1 Study to Evaluate the Effect of the Investigational Anticancer Agent Sapanisertib on the QTc Interval in Patients With Advanced Solid Tumors” (Clinical Pharmacology in Drug Development, 2020)
